We go through 3 compounds from patent EP1738803A1, “Inhibitors of staphylococcus hominis in deodorants and antiperspirants” (Henkel Kommanditgesellschaft auf Aktien, priority 2005, dated 2007).

This assay relates to Staphylococcus hominis. Briefly: Inhibition test: growth of Staphylococcus hominis in Luria broth liquid culture, plate count versus control. In kind it is cell-based. As to conditions: for Hemmleistung als Differenz zur Kontrolle in log-Stufen (RF-Wert): 0,5 Gew.-% Aktivsubstanz; for Hemmleistung als Differenz zur Kontrolle in log-Stufen (RF-Wert) / log reduction at 0.1 % / log reduction at 0.05 %: 37°C; for log reduction at 0.2 % / log reduction at 0.5 % / log reduction at 0.1 % / log reduction at 0.05 %: Staphylococcus hominis, read-out: Hemmleistung als Differenz zur Kontrolle in log-Stufen (RF-Wert); for log reduction at 0.1 %: 0,1 Gew.-% Aktivsubstanz; for log reduction at 0.05 %: 0,05 Gew.-% Aktivsubstanz. The procedure: Eine Luria-broth-Vorkultur (1 Gew.-% Trypton, 0,5 Gew.-% Hefeextrakt, 0,5 Gew.-% NaCl) von Staphylococcus hominis wurde mit Medium auf eine OD600 von 0,1 (entspricht 10^5-10^7 cfu/ml) eingestellt und in 50 ml-Aliquots auf Erlenmeyer-Kolben verteilt. Dazu wurden die zu testenden Wirkstoffe gegeben, so dass sie in den in Tabelle 1 angegebenen Konzentrationen vorlagen, und die Kultur mit 100 Upm bei 37°C inkubiert. Öllösliche Stoffe wie Bisabolol wurden mit 0,1% Tween emulgiert und gegen eine entsprechende Kontrolle getestet. Nach 4, 8 und 24 h erfolgte eine Keimzahlbestimmung über Ausplattieren, wobei die Hemmleistung der einzelnen Wirkstoffe als RF-Wert (Differenz zur Kontrolle in log-Stufen) angegeben ist. Tabelle 1

Like-named read-outs stand apart in the source and are kept apart here.

Aluminiumchlorhydrat: the “Hemmleistung als Differenz zur Kontrolle in log-Stufen (RF-Wert)” value (Zeit 0 h) was found to be 0 log-Stufen, the “Hemmleistung als Differenz zur Kontrolle in log-Stufen (RF-Wert)” value (Zeit 4 h) is 6,07 log-Stufen and the “Hemmleistung als Differenz zur Kontrolle in log-Stufen (RF-Wert)” value (Zeit 8 h) is listed as 6,34 log-Stufen.
With `CCCCC(CC)COCC(O)CO` (stereo not drawn) [Sensiva SC 50, α-Mono-(2-ethylhexyl)glycerinether], the log reduction at 0.2 % is, setting by setting: (0 h) 0; (4 h) 5.77; (8 h) 6.19. Also, the log reduction at 0.5 % is, setting by setting: (0 h) 0; (4 h) 6.14; (8 h) 6.63.
As for `CC(C)=CCC[C@](C)(O)C1CC=C(C)CC1` (stereo partly drawn) [(-)-α-Bisabolol], the log reduction at 0.1 % is 0 (Zeit 0 h), 1.98 (Zeit 4 h) and 2.6 (Zeit 8 h). For the same compound, the log reduction at 0.05 % reads like this: (Zeit 0 h) 0; (Zeit 4 h) 1.3; (Zeit 8 h) 1.75.
